Experimental data from US20250341517A1, “SWITCHING PEPTIDE, IMMUNOASSAY DEVICE COMPRISING SAME, AND IMMUNOASSAY METHOD USING SAME” (OPTOLANE TECHNOLOGIES INC., priority 2021, published 2025).
Ends that are not written are not given here. FAM = carboxyfluorescein (FAM) fluorescent label

Legend:
anti-inf A antibody = test: Graphene-quenched immunoassay with TAMRA L1 switching peptide (FIG. 14); type: binding; conditions: L1 labeled with TAMRA; graphene quenching material
From the text: FIG. 14 is a graph illustrating a fluorescence intensity measured after binding an anti-inf A antibody to which an L1 switching peptide labeled with a TAMRA fluorescent label is bound, to a graphene quenching material and reacting it with an Influenza A sample solution.

[1] = tested on: anti-HRP antibody from a rabbit; test: One-step immunoassay with varying HRP concentration (FIG. 8); type: binding; conditions: HRP 0.3 to 100 μM (FIG. 8B)
From the text: FIG. 8A is a schematic diagram for explaining an immunoassay method using fluorescently labeled peptide compounds of Example 1, and FIGS. 8B and 8C are graphs illustrating the fluorescence intensity in a solution and at a bottom of the microplate depending on a concentration of the antigen measured by the immunoassay method illustrated in FIG. 8A. In this experiment, an anti-HRP antibody from a rabbit immobilized on a microplate was used as the binding antibody and HRP was used as the antigen.

[2] = tested on: rabbit anti-HRP antibodies; test: Papain treatment of immobilized antibody with bound switching peptide (FIG. 7); type: binding; conditions: after papain treatment compared to before
From the text: FIG. 7A is a schematic diagram illustrating states before and after treatment of the antibody to which the four types of peptides of Example 1 were bound, respectively, with papain, which is a protease, and FIG. 7B is graphs illustrating a fluorescence intensity measured at a bottom (B) of the microplate and in a solution(S) after the papain treatment. In the case of this experiment, after immobilization of the antibodies (rabbit anti-HRP antibodies) on the microplate, binding between the antibody and the switching peptide was induced by treatment with a fluorescently labeled switching peptide, the unbound switching peptide was removed, and then the Fab region was hydrolyzed from the immobilized antibodies by adding papain, which is a protease.
Referring to FIG. 7A, the fluorescence at the bottom (B) of the microplate is expected to decrease after the papain reaction because the fluorescently labeled switching peptides are bound to the Fab region of antibodies, and the fluorescence in the solution is expected to increase because the Fab region to which the switching peptide is bound is hydrolyzed and dissolved into the solution. This prediction is proven to be true from the graphs of FIG. 7B.

anti-HBsAG antibody [3] = test: Fluorescence immunoassay with FAM switching peptide and TQ2 quenching material (FIGS. 9-12); type: binding; conditions: for fluorescence intensity, antigen selectivity: HBsAg
From the text: FIG. 9 is a graph illustrating a fluorescence intensity measured after reacting an anti-HBSAG antibody to which an H2 switching peptide of Example 2 and a Tide-Quencher 2 (TQ2) quenching material are bound, with HBsAg, Inf A, Inf B (Florida), Inf B (Tokio), and PBS sample solutions, respectively.
FIG. 10 is a graph illustrating a fluorescence intensity measured after reacting the anti-HBsAG antibody to which the H2 switching peptide of Example 2 and the Tide-Quencher 2 (TQ2) quenching material are bound, with detection sample solutions each containing various concentrations of HBsAg antigens.
FIG. 11 is a graph illustrating a fluorescence intensity measured after binding the anti-HBsAG antibody to which the H2 switching peptide of Example 2 and the Tide-Quencher 2 (TQ2) quenching material are bound, to protein A beads and reacting it with detection sample solutions containing various concentrations of the HBsAg antigens.
FIG. 12 is graphs illustrating a fluorescence intensity measured after reacting the anti-HBsAG antibody to which one of the L1, H1, L2 and H2 switching peptides of Example 2 and the TQ2 quenching material is bound, with HRP, CRP, HBsAg, and hCG sample solutions, respectively.

anti-SARS-COV-2 antibody = test: Graphene-quenched immunoassay with TAMRA L1 switching peptide (FIG. 15); type: binding; conditions: L1 labeled with TAMRA; graphene quenching material
From the text: FIG. 15 is a graph illustrating a fluorescence intensity measured after binding an anti-SARS-COV-2 antibody to which an L1 switching peptide labeled with a TAMRA fluorescent label is bound, to a graphene quenching material and reacting it with a SARS-CoV-2 sample solution.

Anti-CRP antibody(r) = test: Release of fluorescently labeled switching peptide from immobilized antibody on antigen binding (Table 4); set-up: species or system rabbit
H2 peptide = test: FRET test of specific interaction between L1 and H2 peptides on microplate (FIG. 4A); type: binding; conditions: L1 (FAM) and H2 (TAMRA); L1 concentration varied
From the text: (§1) FIG. 4A is diagrams illustrating a method for confirming a specific interaction between L1 and H2 peptides and a specific interaction between L2 and H1 peptides and the measurement results thereof, and FIG. 4B is diagrams for explaining a specific interaction between L1 and H2 peptides and a specific interaction between L2 and H1 peptides analyzed using PyMOL software. Here, at the ends of the L1 and L2 peptides, a first fluorescent label, FAM (λex=488 nm, λem=532 nm) was modified, and at the ends of the H1 and H2 peptides, a second fluorescent label, TAMRA (ex=532 nm, hem=570 nm) was modified. Meanwhile, the first peptide (L1 or L2) was immobilized on a parylene-H-coated microplate through a covalent bond between a formyl group of parylene-H and a primary amine group of a lysine residue in the peptide, and a second peptide (H2 or H1) was incubated with the immobilized first peptide (L1 or L2) to allow specific interactions between them.

Anti-HBsAg antibody(g) = test: Release of fluorescently labeled switching peptide from immobilized antibody on antigen binding (Table 4); set-up: species or system goat; conditions: after treatment with antigen HBsAg
Anti-hCG antibody(m) = test: as above; set-up: species or system mouse
anti-HBsAG antibody [4] = test: Graphene-quenched immunoassay with TAMRA L1 switching peptide (FIG. 13); type: binding; conditions: L1 labeled with TAMRA; graphene quenching material
From the text: FIG. 13 is graphs illustrating a fluorescence intensity measured after binding an anti-HBsAg antibody to which an L1 switching peptide labeled with a TAMRA fluorescent label is bound, to a graphene quenching material and reacting it with an HBsAg sample solution.

Inf-B = test: One-step immunoassay detection of Inf-B with switching-peptide-bound binding antibody (FIG. 19, 20D); conditions: antibody bound to the peptide, treated with Inf-A, CRP, BSA
From the text: Therefore, an antibody bound to the L1 peptide or the H2 peptide may be used for selective detection of the Inf-B.
Therefore, binding antibodies bound to the two types of peptides may have similar responses upon detection of Inf-A.
In addition, since it can be confirmed that the baseline is maintained in the experiment with CoV strain 229E, which is a negative control, the immunoassay based on the two types of binding antibodies may be used to detect Inf-B in actual samples.
Therefore, the immunoassay device using the switching peptide according to the present disclosure may sensitively detect Inf-B in a much wider detection range than conventional rapid tests, and the one-step immunoassay method according to the present disclosure may be used for much more sensitive detection of Inf-A and Inf-B in the entire detection range compared to conventional rapid tests.

Inf-A = test: One-step immunoassay detection of Inf-A with switching-peptide-bound binding antibody (FIG. 18, 20B); set-up: species or system Influenza A; conditions: anti-Inf-A antibody bound to the peptide, treated with Inf-A, CRP, BSA
Anti-HRP antibody(r) = test: Release of fluorescently labeled switching peptide from immobilized antibody on antigen binding (Table 4); set-up: species or system rabbit; conditions: after treatment with antigen HRP
L2 peptide = test: FRET test of specific interaction between H1 and L2 peptides on microplate (FIG. 4A); type: binding; conditions: H1 (TAMRA) and L2 (FAM); H1 concentration varied
From the text: as §1

[5] = FAM switching peptides of Example 2, TQ2, HRP, CRP, hCG sample solutions (FIG. 12)

Substance | fluorescence intensity versus Influenza A antigen concentration (anti-inf A antibody) | fluorescence intensity in the solution versus antigen concentration [1] | increase of fluorescence intensity in the solution [2] | fluorescence intensity, antigen selectivity (anti-HBsAG antibody [3]; [5]) | fluorescence intensity versus SARS-COV-2 antigen concentration (anti-SARS-COV-2 antibody) | In solution (S), Change (%) (Anti-CRP antibody(r)) | FRET intensity (H2 peptide) | fluorescence intensity at the bottom of the plate decreased by (Anti-HBsAg antibody(g)) | In solution (S), Change (%) (Anti-hCG antibody(m)) | fluorescence intensity versus HBsAg concentration (anti-HBsAG antibody [4]) | fluorescence signal, selectivity (Inf-B) | fluorescence signal, selectivity (Inf-A) | fluorescence intensity at the bottom of the plate decreased by (Anti-HRP antibody(r)) | FRET intensity (L2 peptide) | fluorescence intensity, antigen selectivity (anti-HBsAG antibody [3]; TQ2 quencher, Inf A, Inf B (Florida), Inf B (Tokio), PBS sample solutions (FIG. 9)) | fluorescence intensity versus HBsAg concentration (anti-HBsAG antibody [3]; TQ2 quencher, antibody bound to protein A beads (FIG. 11)) | specificity for the antigen compared with other switching peptides (anti-HBsAG antibody [3]; FAM switching peptides of Example 2, TQ2 (FIG. 12))
TYLEWYPQKPGQSPKLLIYK [L1, TYLEW YPQKP GQSPK LLIYK] | increased almost linearly as the concentration of the Influenza A antigen contained in the Influenza A sample solution increased | increase in the fluorescence intensity in the solution was observed depending on the concentration of the antigen | 1,032% | high intensity fluorescence was measured only for the HBsAg antigen | increased as the concentration of the SARS-COV-2 antigen contained in the SARS-COV-2 sample solution increased | +778% | FRET intensity increased with increasing the concentration of the L1 peptide | 48.7% | +187% | increased almost linearly as the concentration of the HBsAg antigen contained in the HBsAg sample solution increased | significantly higher fluorescence signal was generated when the Inf-B is treated | significantly higher fluorescence signal is generated when the Inf-A is treated | 12.7% |  |  |  | 
SYWIHWVKQRPGQGLEWIGE [H1, SYWIH WVKQR PGQGL EWIGE] |  | increase in the fluorescence intensity in the solution was observed depending on the concentration of the antigen | 2,184% | high intensity fluorescence was measured only for the HBsAg antigen |  | +152% |  | 41.1% | +206% |  |  |  | 12.3% | FRET intensity was observed to increase with increasing the concentration of the H1 peptide |  |  | 
VYYCFQGSHVPFTK [L2, VYYCF QGSHV PFTK] |  | increase in the fluorescence intensity in the solution was observed depending on the concentration of the antigen | 2,452% | high intensity fluorescence was measured only for the HBsAg antigen |  | +883% |  | 35.2% | +456% |  |  |  | 25.5% |  |  |  | 
FAM-VYYCAREPTGTGIYFDVWGK ({FAM}-VYYCAREPTGTGIYFDVWGK) [H2 switching peptide of Example 2] |  |  |  |  |  |  |  |  |  |  |  |  |  |  | high intensity fluorescence was measured only for the HBsAg antigen | increased as the concentration of HBsAg antigens of the detection sample solution increased | 
VYYCAREPTGTGIYFDVWGK [H2, VYYCA REPTG TGIYF DVWGK] |  | increase in the fluorescence intensity in the solution was observed depending on the concentration of the antigen | 2,356% | high intensity fluorescence was measured only for the HBsAg antigen |  | +677% |  | 63.9% | +416% |  | significantly higher fluorescence signal was generated when the Inf-B is treated | significantly higher fluorescence signal is generated when the Inf-A is treated | 14.8% |  |  |  | specificity for the antigen was relatively low
